# Target: recombinant BACE1 protein (Homo sapiens (Human), UniProt P56817)
# Test: BACE1 biochemical FRET based assay
# Settings: BACE1 versus BACE2
# Excerpt: (1) BACE1 Biochemical FRET Based Assay
# (§1) This assay is a Fluorescence Resonance Energy Transfer Assay (FRET) based assay. The substrate for this assay is an APP derived 13 amino acids peptide that contains the ‘Swedish’ Lys-Met/Asn-Leu mutation of the amyloid precursor protein (APP) beta-site secretase cleavage site. This substrate also contains two fluorophores: (7-methoxycoumarin-4-yl) acetic acid (Mca) is a fluorescent donor with excitation wavelength at 320 nm and emission at 405 nm and 2,4-dinitrophenol (Dnp) is a proprietary quencher acceptor. […] Upon cleavage by BACE1, the fluorophore Mca is separated from the quenching group Dnp, restoring the full fluorescence yield of the donor. The increase in fluorescence is linearly related to the rate of proteolysis.
# Briefly in a 384-well format recombinant BACE1 protein in a final concentration of 0.04 μg/mL was incubated for 450 minutes at room temperature with […] substrate in incubation buffer (final concentrations: 33.3 mM Citrate buffer pH 5.0, 0.033% PEG, 3% DMSO) in the absence or presence of compound. Next the amount of proteolysis was directly measured by fluorescence measurement at T=0′-120′ and T=450′ (excitation at 320 nm and emission at 405 nm). Results were expressed in RFU (Relative Fluorescence Units), as difference between T450 and Tx (Tx is chosen depending on the reaction speed between 0 and 120 minutes).
# (§2) A best-fit curve was fitted by a minimum sum of squares method to the plot of % Controlmin versus compound concentration. From this an IC50 value (inhibitory concentration causing 50% inhibition of activity) can be obtained.
# (§3) LC=Median of the low control values
# (§4) =Low control: Reaction without enzyme
# (§5) HC=Median of the High control values
# =High Control: Reaction with enzyme % Effect=100−[(sample−LC)/(HC−LC)*100] % Control=(sample/HC)*100 % Controlmin=(sample−LC)/(HC−LC)*100
# Chain of recombinant BACE1 protein (P56817 46-501): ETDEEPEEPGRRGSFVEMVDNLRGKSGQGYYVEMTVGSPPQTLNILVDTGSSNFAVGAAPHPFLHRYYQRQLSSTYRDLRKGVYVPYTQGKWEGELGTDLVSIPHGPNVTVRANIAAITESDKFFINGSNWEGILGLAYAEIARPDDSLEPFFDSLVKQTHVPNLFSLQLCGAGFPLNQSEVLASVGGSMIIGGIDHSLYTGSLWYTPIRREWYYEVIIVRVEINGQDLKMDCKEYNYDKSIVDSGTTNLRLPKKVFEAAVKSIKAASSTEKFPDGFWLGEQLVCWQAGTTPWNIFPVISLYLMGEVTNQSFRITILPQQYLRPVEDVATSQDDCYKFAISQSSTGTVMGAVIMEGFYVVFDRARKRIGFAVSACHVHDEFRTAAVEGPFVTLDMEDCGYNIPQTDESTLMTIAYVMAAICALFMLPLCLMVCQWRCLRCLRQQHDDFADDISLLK
row,Selectivity,Compound
1,18.6,CCOc1cnc(C(=O)Nc2ccc(F)c([C@@]3(CF)N=C(N)O[C@@H]4CCOC[C@@H]43)c2)cn1 [Compound I-109]
2,42.7,NC1=N[C@](CF)(c2cc(NC(=O)c3cnc(OCF)cn3)ccc2F)[C@H]2[C@H](CF)OCC[C@H]2O1 [Compound I-010]
3,70.8,CC[C@@H]1OCC[C@H]2OC(N)=N[C@](CF)(c3cc(NC(=O)c4cnc(OC(F)F)cn4)ccc3F)[C@@H]12 [Compound I-094]
4,28.8,C[C@@H]1C[C@H]2OC(N)=N[C@](CF)(c3cc(NC(=O)c4ccc(C(F)(F)F)cn4)ccc3F)[C@H]2CO1 [Compound I-099]
5,52.7,NC1=N[C@](CF)(c2cc(NC(=O)c3cnc(OCC(F)F)cn3)ccc2F)[C@H]2COCC[C@H]2O1 [Compound I-079]
6,14.5,NC1=N[C@](CF)(c2cc(NC(=O)c3cnc(C(F)F)cn3)ccc2F)[C@H]2COCC[C@H]2O1 [Compound I-103]
7,31.6,C[C@@H]1OCC[C@H]2OC(N)=N[C@](CF)(c3cc(NC(=O)c4cnc(OCF)cn4)ccc3F)[C@@H]12 [Compound I-011]
8,56.2,C[C@@H]1C[C@H]2OC(N)=N[C@](CF)(c3cc(NC(=O)c4cnc(OC(F)F)cn4)ccc3F)[C@H]2CO1 [Compound I-089]
9,11.2,C[C@@H]1C[C@H]2OC(N)=N[C@](CF)(c3cc(NC(=O)c4cnc(C(F)F)cn4)ccc3F)[C@H]2CO1 [Compound I-088]
10,123,COc1cnc(C(=O)Nc2ccc(F)c([C@@]3(CF)N=C(N)O[C@@H]4C[C@@H](C)OC[C@@H]43)c2)cn1 [Compound I-069]
11,10.2,Cc1cc(C(F)(F)F)cnc1C(=O)Nc1ccc(F)c([C@@]2(CF)N=C(N)O[C@@H]3CCOC[C@@H]32)c1 [Compound I-106]
12,27.5,[2H]C([2H])([2H])Oc1cnc(C(=O)Nc2ccc(F)c([C@@]3(CF)N=C(N)O[C@@H]4CCOC[C@@H]43)c2)cn1 [Compound I-104]
13,44.7,CC[C@@H]1OCC[C@H]2OC(N)=N[C@](CF)(c3cc(NC(=O)c4cnc(OCF)cn4)ccc3F)[C@@H]12 [Compound I-009]

# Same assay, conditions: FRET, pH 5.0
row,IC50,Compound
1,22.4 nM,CCOc1cnc(C(=O)Nc2ccc(F)c([C@@]3(CF)N=C(N)O[C@@H]4CCOC[C@@H]43)c2)cn1 [Compound I-109]
2,10.7 nM,NC1=N[C@](CF)(c2cc(NC(=O)c3cnc(OCF)cn3)ccc2F)[C@H]2[C@H](CF)OCC[C@H]2O1 [Compound I-010]
3,5.9 nM,CC[C@@H]1OCC[C@H]2OC(N)=N[C@](CF)(c3cc(NC(=O)c4cnc(OC(F)F)cn4)ccc3F)[C@@H]12 [Compound I-094]
4,19.1 nM,C[C@@H]1C[C@H]2OC(N)=N[C@](CF)(c3cc(NC(=O)c4ccc(C(F)(F)F)cn4)ccc3F)[C@H]2CO1 [Compound I-099]
5,18.6 nM,NC1=N[C@](CF)(c2cc(NC(=O)c3cnc(OCC(F)F)cn3)ccc2F)[C@H]2COCC[C@H]2O1 [Compound I-079]
6,21.9 nM,NC1=N[C@](CF)(c2cc(NC(=O)c3cnc(C(F)F)cn3)ccc2F)[C@H]2COCC[C@H]2O1 [Compound I-103]
7,13.2 nM,C[C@@H]1OCC[C@H]2OC(N)=N[C@](CF)(c3cc(NC(=O)c4cnc(OCF)cn4)ccc3F)[C@@H]12 [Compound I-011]
8,9.8 nM,C[C@@H]1C[C@H]2OC(N)=N[C@](CF)(c3cc(NC(=O)c4cnc(OC(F)F)cn4)ccc3F)[C@H]2CO1 [Compound I-089]
9,55 nM,C[C@@H]1C[C@H]2OC(N)=N[C@](CF)(c3cc(NC(=O)c4cnc(C(F)F)cn4)ccc3F)[C@H]2CO1 [Compound I-088]
10,11.7 nM,COc1cnc(C(=O)Nc2ccc(F)c([C@@]3(CF)N=C(N)O[C@@H]4C[C@@H](C)OC[C@@H]43)c2)cn1 [Compound I-069]
11,14.2 nM,Cc1cc(C(F)(F)F)cnc1C(=O)Nc1ccc(F)c([C@@]2(CF)N=C(N)O[C@@H]3CCOC[C@@H]32)c1 [Compound I-106]
12,14.5 nM,[2H]C([2H])([2H])Oc1cnc(C(=O)Nc2ccc(F)c([C@@]3(CF)N=C(N)O[C@@H]4CCOC[C@@H]43)c2)cn1 [Compound I-104]
13,15.5 nM,CC[C@@H]1OCC[C@H]2OC(N)=N[C@](CF)(c3cc(NC(=O)c4cnc(OCF)cn4)ccc3F)[C@@H]12 [Compound I-009]

# Target: recombinant BACE2 protein (Homo sapiens (Human), UniProt Q9Y5Z0)
# Sequence (Q9Y5Z0 63-518): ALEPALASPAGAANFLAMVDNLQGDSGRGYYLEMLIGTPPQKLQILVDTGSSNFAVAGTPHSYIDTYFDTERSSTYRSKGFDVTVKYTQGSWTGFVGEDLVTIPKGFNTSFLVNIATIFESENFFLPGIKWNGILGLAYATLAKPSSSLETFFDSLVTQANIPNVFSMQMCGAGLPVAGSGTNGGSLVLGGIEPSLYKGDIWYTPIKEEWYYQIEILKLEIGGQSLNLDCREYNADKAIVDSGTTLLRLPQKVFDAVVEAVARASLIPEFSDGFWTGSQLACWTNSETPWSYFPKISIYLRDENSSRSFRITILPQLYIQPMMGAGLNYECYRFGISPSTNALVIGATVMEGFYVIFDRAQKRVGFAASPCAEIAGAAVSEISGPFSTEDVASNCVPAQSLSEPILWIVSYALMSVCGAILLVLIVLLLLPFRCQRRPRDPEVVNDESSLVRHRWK
# Test: BACE2 biochemical FRET based assay
# Settings: pH 5.0
# Excerpt: (2) BACE2 Biochemical FRET Based Assay
# as §1, with “assay” for “assay is an APP derived 13 amino acids peptide that”, “beta-secretase” for “beta-site secretase”, “the beta-secretase,” for “BACE1,”
# Briefly in a 384-well format recombinant BACE2 protein in a final concentration of 0.4 μg/mL was incubated for 450 minutes at room temperature with 10 μM substrate in incubation buffer (final concentrations: 33.3 mM Citrate buffer pH 5.0, 0.033% PEG, 2% DMSO) in the absence or presence of compound. Next the amount of proteolysis was directly measured by fluorescence measurement at T=0 and T=450 (excitation at 320 nm and emission at 405 nm). Results were expressed in RFU (Relative Fluorescence Units), as difference between T450 and TO.
# as §2, §3, §4, §5
row,IC50,Compound
1,417 nM,CCOc1cnc(C(=O)Nc2ccc(F)c([C@@]3(CF)N=C(N)O[C@@H]4CCOC[C@@H]43)c2)cn1 [Compound I-109]
2,457 nM,NC1=N[C@](CF)(c2cc(NC(=O)c3cnc(OCF)cn3)ccc2F)[C@H]2[C@H](CF)OCC[C@H]2O1 [Compound I-010]
3,417 nM,CC[C@@H]1OCC[C@H]2OC(N)=N[C@](CF)(c3cc(NC(=O)c4cnc(OC(F)F)cn4)ccc3F)[C@@H]12 [Compound I-094]
4,550 nM,C[C@@H]1C[C@H]2OC(N)=N[C@](CF)(c3cc(NC(=O)c4ccc(C(F)(F)F)cn4)ccc3F)[C@H]2CO1 [Compound I-099]
5,1000 nM,NC1=N[C@](CF)(c2cc(NC(=O)c3cnc(OCC(F)F)cn3)ccc2F)[C@H]2COCC[C@H]2O1 [Compound I-079]
6,316 nM,NC1=N[C@](CF)(c2cc(NC(=O)c3cnc(C(F)F)cn3)ccc2F)[C@H]2COCC[C@H]2O1 [Compound I-103]
7,417 nM,C[C@@H]1OCC[C@H]2OC(N)=N[C@](CF)(c3cc(NC(=O)c4cnc(OCF)cn4)ccc3F)[C@@H]12 [Compound I-011]
8,550 nM,C[C@@H]1C[C@H]2OC(N)=N[C@](CF)(c3cc(NC(=O)c4cnc(OC(F)F)cn4)ccc3F)[C@H]2CO1 [Compound I-089]
9,617 nM,C[C@@H]1C[C@H]2OC(N)=N[C@](CF)(c3cc(NC(=O)c4cnc(C(F)F)cn4)ccc3F)[C@H]2CO1 [Compound I-088]
10,1440 nM,COc1cnc(C(=O)Nc2ccc(F)c([C@@]3(CF)N=C(N)O[C@@H]4C[C@@H](C)OC[C@@H]43)c2)cn1 [Compound I-069]
11,148 nM,Cc1cc(C(F)(F)F)cnc1C(=O)Nc1ccc(F)c([C@@]2(CF)N=C(N)O[C@@H]3CCOC[C@@H]32)c1 [Compound I-106]
12,398 nM,[2H]C([2H])([2H])Oc1cnc(C(=O)Nc2ccc(F)c([C@@]3(CF)N=C(N)O[C@@H]4CCOC[C@@H]43)c2)cn1 [Compound I-104]
13,692 nM,CC[C@@H]1OCC[C@H]2OC(N)=N[C@](CF)(c3cc(NC(=O)c4cnc(OCF)cn4)ccc3F)[C@@H]12 [Compound I-009]

# From patent US11629154B2, “Tetrahydropyranooxazine derivatives having selective BACE1 inhibitory activity” (SHIONOGI & CO., LTD., priority 2018, dated 2023)
